From US7390795B2, “Treatment and prevention of tissue damage” (Pentraxin Therapeutics Limited, priority 2000, dated 2008)
Read-outs that look alike come from different tables or passages of the source.

What was measured:
C-reactive protein (CRP) = target: T1, C-reactive protein (CRP) (Homo sapiens, UniProt P02741); assay: Inhibition of binding of 125I radiolabelled CRP to enzyme modified low density lipoprotein immobilized in microtitre plates
T1 construct: from tissue; host or cells: Human material
T1 sequence (P02741 19-224): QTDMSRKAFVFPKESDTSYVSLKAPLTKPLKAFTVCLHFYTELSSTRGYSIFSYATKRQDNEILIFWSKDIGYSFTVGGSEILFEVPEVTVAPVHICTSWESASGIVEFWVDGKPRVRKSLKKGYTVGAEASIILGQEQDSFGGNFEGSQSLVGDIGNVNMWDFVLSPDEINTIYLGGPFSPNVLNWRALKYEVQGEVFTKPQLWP
Procedure: Screening for Inhibitors of Binding of ^125I Radiolabelled CRP to Enzyme Modified Low Density Lipoprotein Immobilized in Microtitre Plates. […] However, likely critical ligands of importance in vivo in the pathogenesis of atherothrombosis, are modified forms of low density lipoprotein. […] All wells were then washed three times with 200 μl volumes of PBS before blocking by incubation for 1 h at room temperature with 100 μl per well of 0.2 m Tris pH 8.0. The wells were then washed again 3 times with 200 μl volumes of PBS and finally emptied before adding to each one 100 μl volumes of the following reagents.

[1] = Plasma clearance and serum concentration of injected human CRP and SAP in rats
Procedure: Human CRP or SAP were injected i.p. at 40 mg/kg 1 h after coronary artery ligation and then at 24 h intervals until the rats were killed on day 5. The proteins were dissolved in 10 mM Tris, 140 mM NaCl, pH 8.0, also containing 2 mM CaCl2 in the case of human CRP, and the control rats received injections of the buffer alone at the same intervals. […] Plasma clearance of human CRP was also studied in the same protocol in normal unoperated rats that had received cobra venom factor 24 h previously.

[2] = test system: experimental acute myocardial infarction produced by coronary artery ligation
Source text: Induction and Measurement of Myocardial Infarction. Female Wistar rats bred at ICSM, Hammersmith campus were used at age 9-10 wk and weighed 230-280 g. […] All animals were carefully examined and were healthy before being fasted overnight prior to surgery. General anesthesia was induced with inhaled isoflurane and supplemental oxygen was provided at 1.0 liter/min. The chest was opened through the sixth intercostal space, anesthesia was discontinued but supplemental oxygen continued at 0.5 liter/min, and the pericardium was opened to allow the heart to be lifted cut of the thorax. The left anterior descending coronary artery was immediately ligated at a constant distance just below the atrium with a 5/0 silk suture, the heart was replaced and the chest closed whilst active ventilation with 100% oxygen was continued. The duration of pneumothorax was about 30 s. […] Buprenorphine 0.05 mg/kg was given immediately for post-operative analgesia and repeated 12 hourly.
Deep anesthesia was induced with isoflurane and the hearts were excised while still beating in sinus rhythm and immediately arrested in diastole by immersion in 10 ml of 30 mM KCl. They were then cleaned of any extraneous adherent tissue and weighed before being briefly chilled at −20° C. to produce sufficient rigidity to facilitate cutting into defined sections. Each heart was cut into four slices of equal thickness perpendicular to the course of the left coronary artery, starting from the apex of the heart and ending at the position of the ligature around that artery. These slices were designated A, B, C, and D starting from the apex, and each was washed with pure water and then immersed in 0.02 M phosphate buffer pH 7.4 containing 0.5 mg/ml of nitroblue tetrazolium (NBT) (Sigma) at 37° C. for 30 min. NBT stains viable but not infarcted myocardium.
After staining with NBT the slices were washed briefly in cold water before fixation in 10% buffered formalin for 48 h, and the proximal cut surface of each slice was then imaged under standard conditions with a high resolution digital camera. The captured images were coded and analyzed ‘blind’ without knowledge by the operators of the treatment received by the rat in question. Lines were drawn around the total area of the slice, the NBT negative infarct zone, and any parts of the image to be excluded from the estimation including valves, chordae tendinae, shadows and edges, and the area of the infarct was determined as a percentage of the total area. […] Statistical significance of differences between infarct sizes in different treatment groups within each experiment were sought by one way ANOVA and by Bonferroni t-tests.
In Vivo Treatments. […] Human CRP or SAP were injected i.p. at 40 mg/kg 1 h after coronary artery ligation and then at 24 h intervals until the rats were killed on day 5. The proteins were dissolved in 10 mM Tris, 140 mM NaCl, pH 8.0, also containing 2 mM CaCl2 in the case of human CRP, and the control rats received injections of the buffer alone at the same intervals.

[3] = Experiment 2, 40 mg/kg i.p. 1 h after ligation then every 24 h, day 5
[4] = Experiment 2, 5 rats treated, 40 mg/kg i.p. daily

Compound	Inhibition of CRP binding to enzyme modified LDL, in words (C-reactive protein (CRP))	Percent inhibition of binding of radiolabelled CRP to immobilized enzyme modified low density lipoprotein (C-reactive protein (CRP); compound molarity 1 μM)	Percent inhibition of binding of radiolabelled CRP to immobilized enzyme modified low density lipoprotein (C-reactive protein (CRP); compound molarity 10 μM)	Percent inhibition of binding of radiolabelled CRP to immobilized enzyme modified low density lipoprotein (C-reactive protein (CRP); compound molarity 100 μM)	Percent inhibition of binding of radiolabelled CRP to immobilized enzyme modified low density lipoprotein (C-reactive protein (CRP); compound molarity 1 mM)	Percent inhibition of binding of radiolabelled CRP to immobilized enzyme modified low density lipoprotein (C-reactive protein (CRP); compound molarity 10 mM)	Infarct size mean (SD) % [2, 3]	Day 5 survivors [2, 4]	other results
O=C(O)CN(CCN(CC(=O)O)CC(=O)O)CC(=O)O [EDTA]	All binding was inhibited	–	–	–	–	–	–	–	–
CCCCCCCCCCCCCCCCOP(=O)([O-])OCC[N+](C)(C)C [Hexadecyl phosphocholine, hexadecyl phosphocholine]	–	0	0	76	73	94	–	–	IC50 for inhibition of CRP binding to enzyme modified LDL (C-reactive protein (CRP); stated in words): in the micromolar range
NCCOP(=O)(O)O [Phosphoethanolamine, phosphoethanolamine]	inhibition at high concentration, but only modest effects when diluted	0	0	39	90	92	–	–	–
N[C@@H](COP(=O)(O)O)C(=O)O [Phosphoserine, phosphoserine]	–	0	0	0	0	38	–	–	–
Human CRP: isolated pure human C-reactive protein, a plasma pentraxin	–	–	–	–	–	–	17.6 (0.4) %	3	Serum concentration of the injected protein ([1]; coronary artery ligated rats killed 24 h after the last of 5 daily 40 mg/kg i.p. injections): 13 to 53 µg/mL; Plasma clearance in decomplemented rats ([1]; single 40 mg/kg i.p., cobra venom factor 250 U/kg 24 h beforehand, unoperated rats): not affected by complement depletion; Infarct size mean (SD) % ([2]; Experiment 1, 40 mg/kg i.p. 1 h after ligation then every 24 h, day 5): 21.2 (2.0) %; Day 5 survivors ([2]; Experiment 1, 5 rats treated, 40 mg/kg i.p. daily): 4; Day 5 survivors ([2]; Table 3 experiment, 5 or 6 rats treated): 3; Infarcts larger than in control untreated animals ([2]; complement sufficient rats, day 5, Table 3 experiment): approximately 40%; Clinical condition ([2]; coronary artery ligated rats, 40 mg/kg i.p.): rapidly became clinically less well than buffer-treated controls; Infarcts larger than in control rats treated with buffer or human SAP ([2]; day 5, Table 2 experiments): about 40%; Effect on the reduced infarct size in decomplemented rats ([2]; rat, in vivo): no effect at all; Infarct size mean (SD) % ([2]; rat, in vivo): 19.7 (1.6) %; Clinical condition ([2]; rats not operated on, same doses): absolutely no ill effects
Human SAP: human serum amyloid P component, pentraxin closely related to CRP	–	–	–	–	–	–	12.4 (1.9) %	5	Clinical condition ([2]; normal or coronary artery ligated rats): no adverse clinical effects
